According to the supplement of paper PMC11208160:

test: recombinant UMI read abundance after kanamycin selection (control-corrected) (log10(CPM+1)); higher = more efficient recombination; extreme values may be limits of the assay; sequences stand for … in AGTGCAGAGAAAATCGGCCAGTTTTCTCTGCCTGCAGTCCGCATGCCGTGGGACCCCTTGGGTTCTAACCTGTTGCCTAGATTTATGCAGCGGACTGCCTTTCTCCCAAAGTGATAAACCGG…AGGTTGGTTTCACT; site = the 11-nt donor
In short: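 Two replicates each of selected and unselected plating were used in this pooled Escherichia coli screen of donor and donor-binding-loop pairs for the IS621 bridge recombinase. Selection was with IPTG (0.07 mM) and kanamycin. Counts of recombinant UMIs, amplified across the donor–target junction, were converted to CPM, averaged, scaled by control-derived factors and reported as log10(CPM+1).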
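Further: IS621 bridge recombinase in Escherichia coli cells against a fixed T5 target plasmid.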

Row | Sequence | recombinant UMI read abundance (log10)
1 | CGATTGACATGGACCGGTTTTCCCGGTAATCCGTATTTGTT (site CGATTGACTAA) | 1.24
2 | CGATTTTCATGGACCGGTTTTCCCGGTAATCCGTATTTGCT (site CGATCATCTAG) | 0
3 | CGATTTTCATGGACCGGTTTTCCCGGTAATCCGTATTTGCT (site CGATTTTCTAG) | 1.29
4 | CGCAAGACATGGACCGGTTTTCCCGGTAATCCGTATTTGCA (site CGCAAGACTTG) | 1.79
5 | CGCAATACATGGACCGGTTTTCCCGGTAATCCGTATTTGGT (site CGCAATACTAC) | 1.25
6 | CGCAATCCATGGACCGGTTTTCCCGGTAATCCGTATTTGTT (site CGAAATCCTAA) | 0.00301
7 | CGCAATCCATGGACCGGTTTTCCCGGTAATCCGTATTTGTT (site CGCAATCCTAA) | 0.698
8 | CGCAATCCATGGACCGGTTTTCCCGGTAATCCGTATTTGTT (site CGGAATCCTAA) | 0
9 | CGCAATCCATGGACCGGTTTTCCCGGTAATCCGTATTTGTT (site CGTAATCCTAA) | 0
10 | CGCACCCCATGGACCGGTTTTCCCGGTAATCCGTATTTGAC (site CGCACCCCTGT) | 1.43
11 | CGCACGACATGGACCGGTTTTCCCGGTAATCCGTATTTGCC (site CGCACGACTGG) | 1.95
12 | CGCAGAACATGGACCGGTTTTCCCGGTAATCCGTATTTGCA (site CGCAGAACTTG) | 1.37
13 | CGCAGAACATGGACCGGTTTTCCCGGTAATCCGTATTTGTA (site CGCAGAACTTA) | 2.19
14 | CGCATCCCATGGACCGGTTTTCCCGGTAATCCGTATTTGGC (site CGCATCCCTGC) | 1.75
15 | CGCATTTCATGGACCGGTTTTCCCGGTAATCCGTATTTGCC (site CGCATTTCTGG) | 0
16 | CGCCACCCATGGACCGGTTTTCCCGGTAATCCGTATTTGTT (site AGCCACCCTAA) | 0.00879
17 | CGCCACCCATGGACCGGTTTTCCCGGTAATCCGTATTTGTT (site CGCCACCCTAA) | 0.0407
18 | CGCCACCCATGGACCGGTTTTCCCGGTAATCCGTATTTGTT (site GGCCACCCTAA) | 0.0241
19 | CGCCACCCATGGACCGGTTTTCCCGGTAATCCGTATTTGTT (site TGCCACCCTAA) | 0.00618

Row | Sequence | recombinant UMI read abundance (log10)
20 | CGCCAGACATGGACCGGTTTTCCCGGTAATCCGTATTTGCC (site CGCCAGACTGG) | 1.38
21 | CGCCATCCATGGACCGGTTTTCCCGGTAATCCGTATTTGTT (site CGCCATCCTAA) | 0.44
22 | CGCCATCCATGGACCGGTTTTCCCGGTAATCCGTATTTGTT (site CGGAATCCTAA) | 0
23 | CGCCATGCATGGACCGGTTTTCCCGGTAATCCGTATTTGAC (site CGCCATGCTGT) | 1.6
24 | CGCCGTACATGGACCGGTTTTCCCGGTAATCCGTATTTGCA (site CGCCGTACTAG) | 0.00535
25 | CGCCGTACATGGACCGGTTTTCCCGGTAATCCGTATTTGCA (site CGCCGTACTCG) | 0.013
26 | CGCCGTACATGGACCGGTTTTCCCGGTAATCCGTATTTGCA (site CGCCGTACTGG) | 0.685
27 | CGCCGTACATGGACCGGTTTTCCCGGTAATCCGTATTTGCA (site CGCCGTACTTG) | 2.07
28 | CGCCGTACATGGACCGGTTTTCCCGGTAATCCGTATTTGGT (site CGCCGTACTAA) | 0.0124
29 | CGCCGTACATGGACCGGTTTTCCCGGTAATCCGTATTTGGT (site CGCCGTACTAC) | 0.57
30 | CGCCGTACATGGACCGGTTTTCCCGGTAATCCGTATTTGGT (site CGCCGTACTAG) | 0
31 | CGCCGTACATGGACCGGTTTTCCCGGTAATCCGTATTTGGT (site CGCCGTACTAT) | 0.321
32 | CGCCTGTCATGGACCGGTTTTCCCGGTAATCCGTATTTGTT (site CGCCTGTCTAA) | 0.902
33 | CGCCTTCCATGGACCGGTTTTCCCGGTAATCCGTATTTGGT (site CGCCTTCCTAC) | 0.0121
34 | CGCGGAACATGGACCGGTTTTCCCGGTAATCCGTATTTGTT (site CGAGGAACTAA) | 0.0752
35 | CGCGGAACATGGACCGGTTTTCCCGGTAATCCGTATTTGTT (site CGCGGAACTAA) | 2.39
36 | CGCGGAACATGGACCGGTTTTCCCGGTAATCCGTATTTGTT (site CGGGGAACTAA) | 0.0138
37 | CGCGGAACATGGACCGGTTTTCCCGGTAATCCGTATTTGTT (site CGTGGAACTAA) | 0.00441
